Test results reported in patent publication US20130283403A1, “ZEBRAFISH SEIZURE MODEL, METHOD FOR ES[…] SAME, AND METHOD FOR SCREENING ANT[…] USING THE SAME” (NATIONAL CHENG KUNG UNIVERSITY, priority 2012, published 2013).

Experiments:
[1] = test system: ginkgotoxin-induced zebrafish seizure model; experiment: Screening for drugs using the ginkgotoxin-induced zebrafish seizure model; type: in vivo, zebrafish (Dania rerio, AB strain); conditions: for rescuing effect: zebrafish at six hours post fertilization treated for 3 days, FIGS. 4A and 4B
Protocol: (§1) A solution of the ginkgotoxin is stored below −20° C. The ginkgotoxin concentrate of 40 mM is added to a fish water to keep the concentrations between 0.2 mM and 1 mM while the zebrafish seizure model is induced. The zebrafish is incubated in the fish water without ginkgotoxin for the control group.
(§2) Pyridoxal-5′-phosphate and GABA stock solution of 40 mM are used when measuring the response of zebrafish embryos seizure model with respect to effects of ant-convulsant drugs. Anticonvulsant drugs, such as gabapentin, phenyloin, and primidone, are dissolved in DMSO to make 100 mM concentration. During experiments, anticonvulsant drugs and ginkgotoxin are added to the fish water simultaneously, or the anticonvulsant drugs are added to the fish water three hours before the zebrafish behaviors are recorded and analyzed. This will be described in detail in the following.
(§3) The swimming behavior of zebrafish were was observed directly by naked eyes to determine the test results, and a quantified standard is made by a swimming distance and velocity of the zebrafish. At least 10 zebrafish were used for each group.
(§4) Besides, the zebrafish embryos are placed in 200 μl fish water in a concave on microscope slide. Herein, the zebrafish embryos are observed and recorded under a high-resolution dissecting microscope (Panasonic Digital video camera, DMC-FX55GT). Further, each condition, such as the swimming distance and velocity, of zebrafish are analyzed and quantified by a locomotion tracking system (EthoVision XT8.0 locomotion tracking system® (Noldus Information Technology, Inc., Leesburg, Va., USA)). The zebrafish is incubated in the fish water without ginkgotoxin for the control group.
Herein, GABA, PLP, gabapentin and phenyloin are used to perform experiments. The zebrafish embryos are incubated in fish water without ginkgotoxin represented as a “control group”; the zebrafish embryos are treated with ginkgotoxin represented as “GT”; the zebrafish embryos are treated simultaneously with ginkgotoxin and PLP of 0.5 mM represented as “GT+PLP”; the zebrafish embryos are treated simultaneously with ginkgotoxin and GABA of 0.5 mM represented as “GT+GABA”; the zebrafish embryos are treated simultaneously with ginkgotoxin and gabapentin of 1 mM represented as “GT+gabapentin”; the zebrafish embryos are treated simultaneously with ginkgotoxin and phenyloin of 1 mM represented as “GT+phenyloin”. The results are shown in FIGS. 2A to 4B, wherein, FIG. 2A and FIG. 2B are results showing that zebrafish at 3 days post fertilization of the example are treated for 2 hours; FIG. 3A and FIG. 3B are results showing that zebrafish at 5 days post fertilization of the example are treated for 2 hours; FIG. 4A and FIG. 4B are results that zebrafish at 6 hours post fertilization of the example were treated for 3 days. These indicate aggrevated seizure and convulsion when the swimming distance is longer and swimming velocity is faster transitorily.
Here, a comparison between the zebrafish seizure model induced by PTZ and one induced by ginkgotoxin is drawn. Wherein, the zebrafish embryos incubated in fish water without ginkgotoxin represented as a “control group”; the zebrafish embryos only treated with ginkgotoxin represented as “GT”; the zebrafish embryos treated only with PTZ of 0.5 mM represented as “PTZ”; the zebrafish embryos treated simultaneously with ginkgotoxin and DMSO represented as “GT+DMSO”; the zebrafish embryos treated simultaneously with PTZ and DMSO represented as “PTZ+DMSO”; the zebrafish embryos treated simultaneously with ginkgotoxin and gabapentin of 2 mM represented as “GT+gabapentin”; the zebrafish embryos treated simultaneously with PTZ and phenyloin of 2 mM represented as “PTZ+phenyloin”; the zebrafish embryos treated simultaneously with GT and folic acid of 1 mM represented as […]; the zebrafish embryos treated simultaneously with PTZ and folic acid of 1 mM is indicated as “PTZ+folic acid”. […]

[2] = test system: zebrafish larvae; experiment: Establishing the zebrafish seizure model with ginkgotoxin; type: in vivo, zebrafish (Dania rerio, AB strain)
Protocol: as §1, §3, §4
To induce seizures, the zebrafish larvae at 5 days post fertilization (5-dpf) are placed in fish water containing ginkgotoxin of various concentrations (0.2 mM to 1 mM) and ecorded and analyzed 2 hours later. […]

[3] = test system: PTZ-induced zebrafish seizure model; experiment: Zebrafish seizure model induced by PTZ; type: in vivo, zebrafish (Dania rerio, AB strain); conditions: model induced by PTZ 0.5 mM, FIGS. 5A and 5B
Protocol: as §2, §3
as §4, with “group. […]” for “group.”

[4] = test system: PTZ-induced zebrafish seizure model; conditions: current experimental data; cited from earlier work
[5] = 1 mM added simultaneously with ginkgotoxin 0.5 mM, regardless of embryonic stage, FIGS. 2A to 4B
[6] = 0.5 mM added simultaneously with ginkgotoxin 0.5 mM, FIGS. 2A to 4B

SMILES | conditions of seizure and convulsion (swimming distance and velocity) [1, 5] | rescuing effect ([1]; 1 mM with ginkgotoxin) | conditions of seizure and convulsion (swimming distance and velocity) [1, 6] | rescuing effect ([1]; 0.5 mM with ginkgotoxin) | also measured
NCC1(CC(=O)O)CCCCC1 [gabapentin] | alleviated with greater extent | most obvious signs of rescuing effect |  |  | 
O=C1NC(=O)C(c2ccccc2)(c2ccccc2)N1 [phenyloin] | alleviated with greater extent | most obvious signs of rescuing effect |  |  | 
Cc1ncc(COP(=O)(O)O)c(C=O)c1O [PLP, Pyridoxal-5′-phosphate] |  |  | alleviated with a greater extent | most obvious signs of rescuing effect | 
COCc1c(CO)cnc(C)c1O [ginkgotoxin, 4-O-methylpyridoxine] |  |  |  |  | lower dose at which the zebrafish seizure model can be established ([2]; 5-dpf larvae, after incubating for 2 hours, FIG. 1B): 0.2 mM; concentration at which the zebrafish seizure model can be established steadily ([2]; zebrafish larvae at 5 days post fertilization, in fish water, FIGS. 1A and 1B): 500 µM; state of zebrafish treated with ginkgotoxin (swimming distance and velocity) ([1]; 0.5 mM, 3 dpf or 5 dpf treated 2 hours, 6 hpf treated 3 days, FIGS. 2A to 4B): states of seizure or convulsion
NCCCC(=O)O [GABA, gamma-aminobutyric acid] |  |  | alleviated with a greater extent | most obvious signs of rescuing effect | 
CCC1(c2ccccc2)C(=O)NCNC1=O [primidone] |  |  |  |  | detection as antiepileptic or anti-convulsion drug (seizure stage 0/I/II) ([1]; model induced by ginkgotoxin, FIGS. 5A and 5B): enable to screen out; detection as antiepileptic or anti-convulsion drug (seizure stage 0/I/II) [3]: could not be accomplished; response of the PTZ-induced seizure model to the drug [4]: does not respond
